# Entries after “also recorded” stand apart in the source; their conditions may differ. Read-outs that look alike come from different tables or passages of the source.
# Experiments:
# [1] = system: lipoxygenase; assay: Inhibition of lipoxygenase enzyme activity (general statement); type: biochemical; settings: enzyme not given
# [2] = target: T1, 5-lipoxygenase (Rattus norvegicus, UniProt P12527); assay: Test of 5-Lipoxygenase Inhibitory Activity (rat PMNL enzyme, radiolabelled arachidonic acid, TLC); type: biochemical, Wistar-King rats
# T1 construct: The supernatant was used as the enzyme solution of 5-lipoxygenase; from tissue; host or cells: peritoneal polymorphonuclear leukocytes (PMNL) of glycogen-injected Wistar-King rats, homogenate supernatant
# T1 sequence (P12527 1-673): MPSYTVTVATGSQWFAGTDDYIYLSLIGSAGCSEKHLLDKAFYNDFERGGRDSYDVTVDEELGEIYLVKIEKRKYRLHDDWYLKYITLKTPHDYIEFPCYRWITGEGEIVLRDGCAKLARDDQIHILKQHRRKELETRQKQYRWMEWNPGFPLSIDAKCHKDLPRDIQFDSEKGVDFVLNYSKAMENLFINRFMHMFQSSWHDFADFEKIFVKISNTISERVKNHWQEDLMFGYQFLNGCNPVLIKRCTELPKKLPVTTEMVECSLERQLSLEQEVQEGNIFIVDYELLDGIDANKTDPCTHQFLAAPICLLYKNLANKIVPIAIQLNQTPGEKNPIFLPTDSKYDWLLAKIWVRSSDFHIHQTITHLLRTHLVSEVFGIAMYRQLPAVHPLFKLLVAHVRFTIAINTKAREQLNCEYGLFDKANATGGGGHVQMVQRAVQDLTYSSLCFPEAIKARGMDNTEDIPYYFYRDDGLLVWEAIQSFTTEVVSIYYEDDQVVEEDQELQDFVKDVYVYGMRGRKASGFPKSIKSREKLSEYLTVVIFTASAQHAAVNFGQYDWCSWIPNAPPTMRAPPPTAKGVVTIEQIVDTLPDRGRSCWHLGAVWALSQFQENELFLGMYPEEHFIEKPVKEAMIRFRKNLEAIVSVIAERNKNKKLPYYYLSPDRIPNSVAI
# Description: (1) Formation of Enzyme Solution of 5-Lipoxygenase
# Peritoneal polymorphonuclear leukocytes (PMNL) were prepared from normal Wistar-King rats (150-400 g) injected intraperitoneally with 5% (w/v) glycogen (20 mL/kg). A suspension in potassium phosphate buffer (50 mM, pH 7.4) was homogenized and centrifuged. The supernatant was used as the enzyme solution of 5-lipoxygenase.
# (2) Measurement of Inhibitory Activity Against 5-Lipoxygenase
# 0.02 mL Of enzyme solution (2 mg protein/mL) and [1l-^14 C] arachidonic acid ([…]) were incubated with each testing solution (0.02 mL) and Ca^2+ and ATP at 37° C. for 5 min.
# After incubation at 37° C. for 5 min, the reaction was terminated by adding 0.2 mL of 0.5 N formic acid, and the metabolite was extracted by 3 mL of ethyl acetate.
# Then the extracted solution was subjected to thin-layer chromatography (TLC) and developed with ether/petroleum ether/acetic acid (50:50:1, v/v) at 4° C. The radioactive metabolites generated by 5-lipoxygenase were detected and quantified using autoradiography. The inhibitory activity on 5-lipoxygenase was measured and expressed as a percentage of the control.
# [3] = system: TPA-induced inflammation to the ears of mice; settings: skin, 0.5 mg/ear; already reported data; cited from earlier work
# [4] = system: oxazolone-induced inflammation in the ears of mice; settings: skin, 1.0 mg/ear; already reported data; cited from earlier work
# [5] = system: 12-lipoxygenase; assay: Test of 12-Lipoxygenase Inhibitory Activity (rat platelet enzyme, radiolabelled arachidonic acid, TLC); type: biochemical, Wistar-King rats
# Description: A test of the substances' effectiveness as inhibitors of the enzyme activity of 12-lipoxygenase was conducted for Embodiment 1 to 4.
# (1) Formation of Enzyme Solution of 12-Lipoxygenase
# Blood was collected from normal Wistar-King rats (150-400 g) and 0.5 mM of EDTA was added as anti-coagulant. The centrifuged supernatant (1,200 rpm for 10 min.) was again centrifuged at 3,000 rpm for 10 min. The deposited platelets were washed by 25 mM Tris/HCl buffer (pH 7.4) 1 mM EDTA /130 mM NaCl. The suspension of platelets in 1 mM EDTA was homogenized and used as an enzyme solution of 12-lipoxygenase.
# (2) Measurement of Inhibitory Activity of 12-Lipoxygenase
# Four to six testing solutions with different levels of concentration were prepared for Embodiment 1 to 4. 0.13 mL of enzyme solution (2 mg protein/mL) and [1-^14 C] arachidonic acid ([…]) were incubated with a testing solution (0.02 mL) at 37° C. for 5 min.
# After incubation at 37° C. for 5 min., the reaction was terminated by adding 0.2 mL of 0.5 N formic acid, and the metabolite was extracted by adding 3 mL of ethyl acetate. […] The radioactive metabolites of 12 lipoxygenase were detected and quantified using autoradiography. The inhibitory activity of 12-lipoxygenase was measured and expressed as a percentage of the control.
# [6] = system: oxazolone-induced inflammation in the ears of mice; assay: Allergy control test against oxazolone-induced inflammation in the ears of mice, application to the skin; type: in vivo, mice (I.C.R)
# Description: As described in this section, an allergy control test of oxazolone-induced inflammation to the ears of mice was conducted.
# (§1) (1) Application to the Skin
# Oxazolone solution in ethanol (500 μg/100 μl) was applied to the abdominal region of mice (I.C.R, 5 weeks old, Clair), that had been shaved by hair clippers under an anesthetic of Nembutal (Immunization).
# After 5 days of immunization, oxazolone solution in acetone, containing a prescribed amount of the sample being tested (Embodiment 1), was applied to the right ears of the mice (Challenge).
# Also, as a comparison, data on NDGA (Comparison 7), ketoprophen (Comparison 8), phenidone (Comparison 9) and mepiramine (Comparison 10) which had already been reported, were listed in Table 3.
# [7] = system: TPA-induced inflammation to the ears of mice; assay: Regulating inflammatory reaction against TPA-induced inflammation to the ears of mice, application to the skin; type: in vivo, mice (ICR); settings: for Regulating Coefficient: TPA 0.8 μg/20 μl/ear, after 4 hours
# Description: as §1
# Test solutions for Embodiment 1, 3 and 4 were prepared and applied to the right ears of mice (ICR, 5 weeks old, Clair) by adding acetone solution of TPA (0.8 μg/20 μl/ear).
compound,measurement,setting,value
"O=C(/C=C/c1ccc(O)c(O)c1)O[C@H](Cc1ccc(O)c(O)c1)C(=O)O [Comparison 1, rosemarinic acid, reference compound]",Inhibition of lipoxygenase enzyme activity (in words),[1],strongly inhibit lipoxygenase enzyme activity
same,IC50,[2],6.2 µM
"COC(=O)[C@@H](Cc1ccc(O)c(O)c1)OC(=O)/C=C/c1ccc(O)c(O)c1 [Comparison 2, rosemarinic acid methyl ester, reference compound]",Inhibition of lipoxygenase enzyme activity (in words),[1],strongly inhibit lipoxygenase enzyme activity
same,IC50,"[2]; rat PMNL enzyme, 37° C., 5 min",0.6 µM
"O=C(O)/C=C/c1ccc(O)c(O)c1 [Comparison 5, caffeic acid, reference compound]",IC50,[2],72 µM
"CC(Cc1ccc(O)c(O)c1)C(C)Cc1ccc(O)c(O)c1 (stereo not shown) [Comparison 7, NDGA]",Regulating Coefficient,[3],40%
same,Regulating Coefficient,[4],38%
"CC(C(=O)O)c1cccc(C(=O)c2ccccc2)c1 (stereo not shown) [Comparison 8, ketoprophen]",Regulating Coefficient,[4],32%
"O=C1CCN(c2ccccc2)N1 [Comparison 9, phenidone]",Regulating Coefficient,[4],44%
"COc1ccc(CN(CCN(C)C)c2ccccn2)cc1 [Comparison 10, mepiramine]",Regulating Coefficient,[4],38%
"O=c1cc(-c2ccc(O)c(O)c2)oc2cc(O)cc(O)c12 [Embodiment 1, luteolin]",Inhibitory activity against 12-lipoxygenase (in words),[5],"very strong inhibitory activity, similar to that against 5-lipoxygenase"
same,Regulating Coefficient,"[6]; 0.3 mg/ear, 48 hours after challenge",52%
same,Anti-allergic action (in words),[6],higher regulating coefficient for a smaller amount of application against Comparisons 7 to 10
same,Anti-allergic action (in words),[6]; listed as luteolin,significant anti-allergic action
same,Inhibition of lipoxygenase enzyme activity (in words),[1],strongly inhibit lipoxygenase enzyme activity; also recorded: outstanding inhibitory activity
same,Inhibitory activity against 5-lipoxygenase (in words),[2]; in words,significant 5-LO inhibitory activity; also recorded: stronger inhibitory activity than that of Comparison 1 (rosemarinic acid) and Comparison 2 (rosemarinic acid methyl ester)
same,IC50,"[2]; rat PMNL enzyme, 37° C., 5 min",0.1 µM
same,Regulating Coefficient,[7]; 0.15 mg/ear,85%
same,Regulating Coefficient,[7]; 0.3 mg/ear,100%
same,Regulating effect against inflammation (in words),[7]; in words,"significant regulating effect against inflammation; also recorded: anti-inflammatory action, which correlated with the concentration of luteolin"
"COc1cc(-c2cc(=O)c3c(O)cc(O)cc3o2)ccc1O [Embodiment 2, chrysoeriol]",Inhibition of lipoxygenase enzyme activity (in words),[1],strongly inhibit lipoxygenase enzyme activity; also recorded: lesser inhibitory activity
O=c1cc(-c2ccc(O)cc2)oc2cc(O)cc(O)c12 [apigenin],Inhibition of lipoxygenase enzyme activity (in words),[1],strongly inhibit lipoxygenase enzyme activity

# From US6217875A, “Inhibitors of lipoxygenase” (priority 1997, dated 2001)
